Here are results for 1 molecule from patent US5852033A, “Methods of treatment using lamellarin-class alkaloids” (Pharma Mar, s.a., priority 1995, dated 1998).

The test system of one assay is CHOC5 (MDR). The assay is described as follows: LAMELLARINS TOXICITY TO RESISTANT (MDR) TUMOR CELL LINE CHOC5 (MTT). The conditions noted are these: Cricetulus griseus, 72 h; CHOC5 (MDR), MTT, three days; read-out: ACTIVITY: IC50. Type of assay: cell-based, chinese hamster. As for the experimental part: (§1) Sensitive and MDR cells were maintained, in logarithmic phase of growth, in Eagle's Minimum Essential Medium, with Earle's Balanced Salts, with non-essential amino acids, with 2.0 mM L-glutamine, without sodium bicarbonate (EMEM/neaa), supplemented with 5% Fetal Calf Serum (FCS), 10^-2 M sodium bicarbonate and 0.1 g/l penicillin G+0.1 g/l streptomycin sulfate.
(§2) In Vitro cell cytotoxicity was determined using the 3-[4,5-dimethylthiazol-2-yl]-2,5-dipheniltetrazolium bromide (MTT), from Sigma Ref:M-2128, for quantitative measurement of cell growth and viability. See, T. Mosmann, "Rapid Colorimetric Assay for Cellular Growth and Survival: Application to Proliferation and Cytotoxicity Assays," Journal of Immunological Methods, 65: 55-63 (1983).
(§3) The tumor cell lines employed have been: P-388 (ATCC CCL 46), suspension culture of a lymphoid neoplasm from a DBA/2 mouse and its corresponding MDR cell line P-388/SCHABEL; CHOB1 (ATCC CCL 16), monolayer culture of chinese hamster ovary and its corresponding MDR cell line CHOC5. See, Rauscher Ill, et al., "Characterization of Auromycin-Resistant Hamster Cell Mutants that Display a Multidrug Resistance Phenotype," Molecular Pharmacology, 38: 198-206 (1990).
(§4) This form of assay employs 96-well cell culture plates […]. Cells were seeded into wells at 1×10^3 cells per well in 100 μl aliquots of EMEM 5% FCS containing different concentrations of the corresponding lamellarins and other compounds (standards) to be tested. Two separate sets of cultures without drugs were seeded, one as control of growth to ensure that cells remained in exponential phase of growth, and another without cells as control of medium. All determinations were carried out in duplicate.
(§5) After three days of incubation at 37° C., 10% CO2 in a 98% humid atmosphere, 150 μg of MTT is added to each well in 50 μl aliquots of assay medium. Plates were incubated for an additional 4 hours and 100 μl aliquots of isopropanol were added to each well. The broad absorption spectrum for the isopropanol solution of this crystal is optimal at 570 nm. Optical density values were obtained with the help of a Dynatech microplate reader and the results of the assay were used to generate graphics from which IC50 was calculated; i.e., wherein the IC50 is the test concentration which produces 50% cell growth inhibition.

For a further assay, the system named is CHOB1. The assay is described as follows: LAMELLARINS TOXICITY TO SENSITIVE TUMOR CELL LINE CHOB1 (MTT). The conditions noted are these: Cricetulus griseus, 72 h; CHOB1, sensitive, MTT, three days; read-out: ACTIVITY: IC50. The format is cell-based, chinese hamster. As for the experimental part:
as §1, §2, §3, §4, §5

A further assay relates to P-388. Kind of assay: LAMELLARINS TOXICITY TO SENSITIVE TUMOR CELL LINE P-388 (MTT). To be noted: Mus musculus, P388, 72 h; P-388, sensitive, MTT, three days; read-out: ACTIVITY: IC50. Type of assay: cell-based. The procedure: as §1, §2, §3, §4, §5
The subject of another assay is P-388/SCHABEL (MDR). Kind of assay: LAMELLARINS TOXICITY TO RESISTANT (MDR) TUMOR CELL LINE P-388/SCHABEL (MTT). Type of assay: cell-based. The conditions noted are these: Mus musculus, P388, 72 h; P-388/SCHABEL (MDR), MTT, three days; read-out: ACTIVITY: IC50. As for the experimental part: as §1, §2, §3, §4, §5
A further assay deals with P-388/SCHABEL. Kind of assay: Adriamycin toxicity to resistant cells (MDR) in presence or absence of reversing agents, P-388/SCHABEL. Type of assay: cell-based. The conditions noted are these: Mus musculus, P388; control, Adriamycin only, R.A. 0 μg/ml. As for the experimental part: (§6) Gain of Sensitivity (G.S.) = IC50 Control/IC50 R.A.
as §1, §4
(§7) Plates were incubated for an additional 4 hours and 100 μl aliquots of isopropanol were added to each well. The broad absorption spectrum for the isopropanol solution of this crystal is optimal at 570 nm.

A further assay concerns CHOC5. The assay is described as follows: Adriamycin toxicity to resistant cells (MDR) in presence or absence of reversing agents, CHOC5. To be noted: Cricetulus griseus; control, Adriamycin only, R.A. 0 μg/ml. The format is cell-based, chinese hamster. As for the experimental part: as §6, §1, §4, §7

≈ marks a conversion by molar mass, not a printed value.

Consider `COc1cccc2c1C(=O)c1c(O)c3c(c(O)c1C2=O)C[C@@](O)(C(=O)CO)C[C@@H]3O[C@H]1C[C@H](N)[C@H](O)[C@H](C)O1` [Adriamycin, reference compound], for which the 50% inhibitory concentration (IC50) in the assay on CHOC5 (MDR) was determined as 3 µg/mL (≈ 5.52 µM); in the assay with CHOB1, 0.15 µg/mL (≈ 0.276 µM); in the assay with P-388 it was 0.15 µg/mL (≈ 0.276 µM); with P-388/SCHABEL (MDR), 1.2 µg/mL (≈ 2.21 µM); in the assay with P-388/SCHABEL it was 1.2 µg/mL; in the assay with CHOC5 it was 3 µg/mL.
